Measured values: article PMC5000617, “Antiproliferative and Pro-Apoptotic Effect of Novel Nitro-Substituted Hydroxynaphthanilides on Human Cancer Cell Lines” (International Journal of Molecular Sciences, 2016)

Assays:
3T3-L1 cells = assay: WST-1 cell proliferation assay, 3T3-L1 non-tumour cells; assay type: cell-based, mouse
Description: (§1) THP-1 human monocytic leukemia cell line, MCF-7 human breast adenocarcinoma cells and 3T3-L1 mouse embryonic fibroblast were purchased from the European Collection of Cell Cultures (ECACC, Salisbury, UK). Cells were routinely tested for the absence of mycoplasma (Hoechst 33258 staining method). THP-1 cells were maintained in RPMI 1640 culture medium containing 2 mM L-glutamine; MCF-7 and 3T3-L1 cells were cultured in DMEM medium. All of the culture media were supplemented with 10% heat-inactivated FBS and antibiotics (100 U/mL penicillin and 100 μg/mL streptomycin). Cells were maintained at 37 °C in a humidified atmosphere containing 5% CO2.
(§2) Cell proliferation was evaluated using Cell Proliferation Reagent WST-1 (2-(4-iodophenyl)-3-(4-nitrophenyl)-5-(2,4-disulfophenyl)-2H-tetrazolium) (Roche Diagnostics, Mannheim, Germany) according to the manufacturer´s instructions. THP-1 (5 × 10^4 cells/100 μL culture medium per well), MCF-7 cells (1 × 10^4 cells/100 μL per well), and 3T3-L1 (2.5 × 10^3 cells/100 μL per well) were cultured in 96-well plates in triplicate. The measurement was performed using Synergy 2 Multi-Mode Microplate Reader (BioTek, Winooski, VT, USA) after 24 h incubation of cells with tested compounds dissolved in DMSO and subsequently in RPMI 1640 to final concentration ranging 0.5–20 μM in the assays. Cell viability was assessed by dye exclusion test. THP-1 (2 × 10^5 cells/mL per well) and MCF-7 cells (8 × 10^4 cells/mL per well) were incubated in 24-well plates with the indicated concentrations of compounds for 24 h. The number of viable cells was determined using hemocytometer after their staining with a solution of erythrosin B (0.1% erythrosin B (w/v) in PBS). The assays were conducted in triplicate. The IC50 and LC50 values were calculated from fitted concentration-response curves using GraphPad Prism 5.00 software (GraphPad Software, San Diego, CA, USA).

cyclin B1 = assay: Western blot of cyclin B1 in MCF-7 cells; assay type: cell-based, human; conditions: MCF-7, 24 h
Description: (§3) Additionally, the cell cycle analysis allows determining the presence of a subdiploid cell population as a characteristic marker of cells with fractional DNA content. A significant increase (p < 0.001) of the sub-G1 peak was found only after the treatment with 5 µM of compound 2 in THP-1 cells, where an approximately eight-fold increase was observed compared to the drug-free control (Figure 4).
(§4) For Western blotting, cells were washed with PBS and lysed in lysis buffer (100 mM Tris-HCl, pH = 6.8; 20% glycerol; 1% SDS) containing protease and phosphatase inhibitor cocktails. Protein concentration was measured using Roti®-Quant universal (Carl Roth, Karsruhe, Germany) according to the manufacturer’s instructions. Cell lysates were supplemented with bromophenol blue (final concentration 0.01% (w/v)) and β-mercaptoethanol (final concentration 1% (v/v)) prior to being heated for 5 min at 95 °C. Equal amounts of protein (10 μg) were loaded into a 12% polyacrylamide gel, separated by SDS-polyacrylamide gel electrophoresis and subsequently electrotransferred onto nitrocellulose membranes. Reversible Ponceau S. staining was performed to assess equal sample loading. […] The intensity of bands was semi-quantitatively analysed using the ImageJ software (National Institute of Mental Health, Bethesda, MD, USA).

[1] = Erythrosin B dye exclusion viability test, MCF-7; assay type: cell-based; conditions: human, MCF-7 cells; erythrosin B exclusion test, 24 h, mean ± SD; read-out: MCF-7 LC50
Description: (§5) Subsequently, for the comparison of the antiproliferative and cytotoxic effects we assessed the cell viability after 24 h treatment with compounds 1–6 in both tumour cell lines using the dye exclusion test.
as §1, §2

MCF-7 cells = assay: Erythrosin B dye exclusion viability test, MCF-7; assay type: cell-based; conditions: MCF-7, 24 h, vs control
Description: as §5, §1, §2

[2] = Annexin V-FITC/PI apoptosis assay by flow cytometry, THP-1; assay type: cell-based, human; conditions: human, THP-1 cells, representative dot plot, read-out: quadrant I: viable cells
Description: (§6) Staining of cells by Annexin V-FITC conjugate reflects the externalization of phosphatidylserine on the outer surface of the cell membrane as one of the early indicators of apoptosis.
(§7) Early and late stages of apoptosis were detected using Annexin V-FITC Kit—Apoptosis Detection Kit faccording to the manufacturer´s instructions. […] At each time-point of incubation (12, 18, and 24 h) the cells were washed with ice-cold PBS prior to being resuspended at a concentration of 5 × 10^6 cells/mL in a total volume of 100 μL of 1× binding buffer. Annexin V-FITC solution (final concentration 0.25 μg/mL) and PI (final concentration 12.5 μg/mL) were added to each sample; the cell suspension was kept on ice and incubated for 15 min in the dark. After that, the analysis was carried out by flow cytometry. The data were evaluated using Kaluza Flow Cytometry Analysis 1.2. Per sample, a total number of 2 × 10^4 cells were analysed.

THP-1 cells = assay: as above; assay type: cell-based, human
Description: as §6, §7

caspase 8 = assay: Western blot of caspase 8 in THP-1 cells; assay type: cell-based, human; conditions: THP-1, 24 h
Description: (§8) Most of the apoptotic signalling pathways are controlled by caspases that belong to a group of cysteine proteases. To assess whether compound 2 affects these signalling cascades and which pathway is activated (intrinsic or extrinsic), the activities of caspase 3, caspase 9, and caspase 8 were evaluated using Western blot analysis.
as §4

caspase 9 = assay: Western blot of caspase 9 in THP-1 cells; assay type: cell-based, human; conditions: THP-1, 24 h, most pronounced at 10 μM
Description: as §8, §4

cyclin E1 = assay: Western blot of cyclin E1 in THP-1 cells; assay type: cell-based, human; conditions: THP-1, 24 h
Description: as §3
For Western blotting, cells were washed with PBS and lysed in lysis buffer (100 mM Tris-HCl, pH = 6.8; 20% glycerol; 1% SDS) containing protease and phosphatase inhibitor cocktails. Protein concentration was measured using Roti®-Quant universal (Carl Roth, Karsruhe, Germany) according to the manufacturer’s instructions. Cell lysates were supplemented with bromophenol blue (final concentration 0.01% (w/v)) and β-mercaptoethanol (final concentration 1% (v/v)) prior to being heated for 5 min at 95 °C. Equal amounts of protein (10 μg) were loaded into a 12% polyacrylamide gel, separated by SDS-polyacrylamide gel electrophoresis and subsequently electrotransferred onto nitrocellulose membranes. Reversible Ponceau S. staining was performed to assess equal sample loading. Then, the membranes were blocked with 5% non-fat dry milk in TBST (10 mM Tris-HCl pH = 7.5, 150 mM NaCl, 0.1% (v/v) Tween-20) and appropriate primary and secondary antibodies were used for immunodetection. The proteins were visualized by ECL Plus reagent according to the manufacturer’s instructions. The intensity of bands was semi-quantitatively analysed using the ImageJ software (National Institute of Mental Health, Bethesda, MD, USA).

caspase 3 = assay: Western blot of caspase 3 in THP-1 cells; assay type: cell-based, human; conditions: THP-1, 10 μM, 24 h
Description: as §8, §4

For O=C(Nc1cccc([N+](=O)[O-])c1)c1cc2ccccc2cc1O [Compound 2, 3-hydroxy-N-(3-nitrophenyl)naphthalene-2-carboxamide], the “effect on cell proliferation” value (3T3-L1 cells; 3T3-L1, 24 h) was “did not decrease cell growth at any of concentrations used”, the IC50 (3T3-L1 cells; Mus musculus, 3T3-L1, WST-1, 24 h, non-tumour cells, mean ± SD) was greater than 20 µM and the “total protein levels of cyclin B1” value (cyclin B1) was “total protein levels of cyclin B1 were not changed”. The CC50 at 24 h [1] was greater than 20 µM, the “effect on cell viability” value (MCF-7 cells) was “Neither compound 2 nor 6 reduced cell viability under 50%” and the viability at 12 h, 2.5 µM ([2]; THP-1, 2.5 μM, 12 h) was 92.1%. The viability at 18 h, 2.5 µM ([2]; THP-1, 2.5 μM, 18 h) was 90.2%, the viability at 24 h, 2.5 µM ([2]; THP-1, 2.5 μM, 24 h) was 87.8% and the viability at 12 h, 5 µM ([2]; THP-1, 5 μM, 12 h) was 85.8%. It also gave a viability at 18 h, 5 µM ([2]; THP-1, 5 μM, 18 h) of 76.7%, a viability at 24 h, 5 µM ([2]; THP-1, 5 μM, 24 h) of 75.7% and a viability at 12 h, 10 µM ([2]; THP-1, 10 μM, 12 h) of 64.9%. For the same compound, the viability at 18 h, 10 µM ([2]; THP-1, 10 μM, 18 h) was 57.2%, the viability at 24 h, 10 µM ([2]; THP-1, 10 μM, 24 h) was 44.6% and the “double-stained (late apoptotic/secondary necrotic) cells” value (THP-1 cells; THP-1, 10 µM, 12 h, mean) was 22.48%. For the same compound, the “proportion of early apoptotic cells” value (THP-1 cells; THP-1, 10 µM, 12 h, mean, control 2.41%) was 9.37%, the “double-stained (late apoptotic/secondary necrotic) cells” value (THP-1 cells; THP-1, 10 µM, 24 h, mean) was 41.88% and the “pro-apoptotic effect” value (THP-1 cells; THP-1, 2.5, 5, 10 µM, 12, 18, 24 h) was “induced a dose-dependent increase of the percentage of early apoptotic as well as late apoptotic/secondary necrotic”. For the same compound, the “level of active caspase 8” value (caspase 8) was “level of active caspase 8 was not altered”, the “cleaved caspase 9 levels” value (caspase 9) was “significant increase of cleaved caspase 9 levels” and the “expression of cyclin E1” value (cyclin E1) was “dose-dependent decrease in expression of cyclin E1”. The “levels of cyclin E1 low molecular weight (LMW E1) isoform” value (cyclin E1) was “more pronounced reduction of LMW E1 isoform levels”, the “decrease of pro-caspase 3 (inactive form) compared to control” value (caspase 3) was “approximately two-fold” and the “increase of active caspase 3 level in comparison to control” value (caspase 3) was “approximately two-fold”.
